Activity calls are given as the source filed them. The calls are words filed in the database; no cut-off is given here.
Experiments:
[1] = tested on: Malme-3M; assay: Growth inhibition of human MALME-3M cells at 10 uM after 48 hrs by sulforhodamine B assay; assay type: functional
[2] = tested on: LOX IMVI; assay: Growth inhibition of human LOXIMVI cells at 10 uM after 48 hrs by sulforhodamine B assay; assay type: functional; settings: read-out: GI
[3] = tested on: SNB-19; assay: Growth inhibition of human SNB19 cells at 10 uM after 48 hrs by sulforhodamine B assay; assay type: functional; settings: SNB-19, 48 h, read-out: GI
[4] = tested on: SF-539; assay: Growth inhibition of human SF539 cells at 10 uM after 48 hrs by sulforhodamine B assay; assay type: functional; settings: SF-539, 48 h, read-out: GI
[5] = tested on: SF-268; assay: Growth inhibition of human SF268 cells at 10 uM after 48 hrs by sulforhodamine B assay; assay type: functional
[6] = tested on: KM12; assay: Growth inhibition of human KM12 cells at 10 uM after 48 hrs by sulforhodamine B assay; assay type: functional; settings: KM12, 48 h, read-out: GI
[7] = tested on: HT-29; assay: Growth inhibition of human HT-29 cells at 10 uM after 48 hrs by sulforhodamine B assay; assay type: functional
[8] = tested on: HCT-15; assay: Growth inhibition of human HCT15 cells at 10 uM after 48 hrs by sulforhodamine B assay; assay type: functional; settings: HCT-15, 48 h, read-out: GI
[9] = tested on: HCT-116; assay: Growth inhibition of human HCT116 cells at 10 uM after 48 hrs by sulforhodamine B assay; assay type: functional
[10] = tested on: HCC 2998; assay: Growth inhibition of human HCC2998 cells at 10 uM after 48 hrs by sulforhodamine B assay; assay type: functional
[11] = tested on: COLO 205; assay: Growth inhibition of human COLO205 cells at 10 uM after 48 hrs by sulforhodamine B assay; assay type: functional
[12] = tested on: NCI-H322M; assay: Growth inhibition of human NCI-H322M cells at 10 uM after 48 hrs by sulforhodamine B assay; assay type: functional
[13] = tested on: NCI-H226; assay: Growth inhibition of human NCI-H226 cells at 10 uM after 48 hrs by sulforhodamine B assay; assay type: functional
[14] = tested on: HOP-92; assay: Growth inhibition of human HOP92 cells at 10 uM after 48 hrs by sulforhodamine B assay; assay type: functional
[15] = tested on: HOP-62; assay: Growth inhibition of human HOP62 cells at 10 uM after 48 hrs by sulforhodamine B assay; assay type: functional; settings: HOP-62, 48 h, read-out: GI
[16] = tested on: A549; assay: Growth inhibition of human A549/ATCC cells at 10 uM after 48 hrs by sulforhodamine B assay; assay type: functional; settings: A549, 48 h, read-out: GI
[17] = tested on: SR; assay: Growth inhibition of human SR cells at 10 uM after 48 hrs by sulforhodamine B assay; assay type: functional; settings: read-out: GI
[18] = tested on: MOLT-4; assay: Growth inhibition of human MOLT4 cells at 10 uM after 48 hrs by sulforhodamine B assay; assay type: functional; settings: MOLT-4, 48 h, read-out: GI
[19] = tested on: K562; assay: Growth inhibition of human K562 cells at 10 uM after 48 hrs by sulforhodamine B assay; assay type: functional
[20] = tested on: HL-60(TB); assay: Growth inhibition of human HL-60(TB) cells at 10 uM after 48 hrs by sulforhodamine B assay; assay type: functional; settings: HL-60, 48 h, read-out: GI
[21] = tested on: CCRF-CEM; assay: Growth inhibition of human CCRF-CEM cells at 10 uM after 48 hrs by sulforhodamine B assay; assay type: functional
[22] = molecular target: Carbonic anhydrase 9 (Homo sapiens, UniProt Q16790); assay: Inhibition of human carbonic anhydrase 9 after 15 mins by stopped flow CO2 hydration assay
[23] = tested on: MDA-MB-468; assay: Growth inhibition of human MDA-MB-468 cells at 10 uM after 48 hrs by sulforhodamine B assay; assay type: functional
[24] = tested on: T47D; assay: Growth inhibition of human T47D cells at 10 uM after 48 hrs by sulforhodamine B assay; assay type: functional; settings: read-out: GI
[25] = tested on: BT-549; assay: Growth inhibition of human BT549 cells at 10 uM after 48 hrs by sulforhodamine B assay; assay type: functional; settings: BT-549, 48 h, read-out: GI
[26] = tested on: Hs-578T; assay: Growth inhibition of human Hs 578T cells at 10 uM after 48 hrs by sulforhodamine B assay; assay type: functional
[27] = tested on: MDA-MB-231; assay: Growth inhibition of human MDA-MB-231 cells at 10 uM after 48 hrs by sulforhodamine B assay; assay type: functional
[28] = tested on: MCF7; assay: Growth inhibition of human MCF7 cells at 10 uM after 48 hrs by sulforhodamine B assay; assay type: functional
[29] = tested on: DU-145; assay: Growth inhibition of human DU145 cells at 10 uM after 48 hrs by sulforhodamine B assay; assay type: functional
[30] = tested on: UO-31; assay: Growth inhibition of human UO31 cells at 10 uM after 48 hrs by sulforhodamine B assay; assay type: functional; settings: UO-31, 48 h, read-out: GI
[31] = tested on: TK-10; assay: Growth inhibition of human TK10 cells at 10 uM after 48 hrs by sulforhodamine B assay; assay type: functional
[32] = tested on: SN12C; assay: Growth inhibition of human SN12C cells at 10 uM after 48 hrs by sulforhodamine B assay; assay type: functional
[33] = tested on: RXF 393; assay: Growth inhibition of human RXF393 cells at 10 uM after 48 hrs by sulforhodamine B assay; assay type: functional
[34] = tested on: CAKI-1; assay: Growth inhibition of human CAKI-1 cells at 10 uM after 48 hrs by sulforhodamine B assay; assay type: functional
[35] = tested on: A498; assay: Growth inhibition of human A498 cells at 10 uM after 48 hrs by sulforhodamine B assay; assay type: functional; settings: A498, 48 h, read-out: GI
[36] = tested on: 786-0; assay: Growth inhibition of human 786-0 cells at 10 uM after 48 hrs by sulforhodamine B assay; assay type: functional
[37] = tested on: OVCAR-8; assay: Growth inhibition of human OVCAR8 cells at 10 uM after 48 hrs by sulforhodamine B assay; assay type: functional
[38] = tested on: OVCAR-5; assay: Growth inhibition of human OVCAR5 cells at 10 uM after 48 hrs by sulforhodamine B assay; assay type: functional; settings: OVCAR-5, 48 h, read-out: GI
[39] = tested on: OVCAR-3; assay: Growth inhibition of human OVCAR3 cells at 10 uM after 48 hrs by sulforhodamine B assay; assay type: functional
[40] = tested on: IGROV-1; assay: Growth inhibition of human IGROV1 cells at 10 uM after 48 hrs by sulforhodamine B assay; assay type: functional
[41] = tested on: UACC-62; assay: Growth inhibition of human UACC62 cells at 10 uM after 48 hrs by sulforhodamine B assay; assay type: functional
[42] = tested on: UACC-257; assay: Growth inhibition of human UACC257 cells at 10 uM after 48 hrs by sulforhodamine B assay; assay type: functional
[43] = tested on: SK-MEL-28; assay: Growth inhibition of human SK-MEL-28 cells at 10 uM after 48 hrs by sulforhodamine B assay; assay type: functional, cell-based
[44] = tested on: SK-MEL-2; assay: Growth inhibition of human SK-MEL-2 cells at 10 uM after 48 hrs by sulforhodamine B assay; assay type: functional
[45] = tested on: M14; assay: Growth inhibition of human M14 cells at 10 uM after 48 hrs by sulforhodamine B assay; assay type: functional; settings: M14, 48 h, read-out: GI

## NS(=O)(=O)c1cnccc1N1CCN(Cc2ccc3c(c2)OCO3)CC1
[1]
  growth inhibition (GI): inactive
[2]
  inhibition of growth at 10 µM: 8%
[3]
  inhibition of growth at 10 µM: 3%
[4]
  inhibition of growth at 10 µM: 2%
[5]
  growth inhibition (GI): inactive
[6]
  inhibition of growth at 10 µM: 1%
[7]
  growth inhibition (GI): inactive
[8]
  inhibition of growth at 10 µM: 1%
[9]
  growth inhibition (GI): inactive
[10]
  growth inhibition (GI): inactive
[11]
  growth inhibition (GI): inactive
[12]
  growth inhibition (GI): inactive
[13]
  growth inhibition (GI): inactive
[14]
  growth inhibition (GI): inactive
[15]
  inhibition of growth at 10 µM: 5%
[16]
  inhibition of growth at 10 µM: 2%
[17]
  inhibition of growth at 10 µM: 9%
[18]
  inhibition of growth at 10 µM: 5%
[19]
  growth inhibition (GI): inactive
[20]
  inhibition of growth at 10 µM: 7%
[21]
  growth inhibition (GI): inactive
[22]
  Ki: 89.4 nM
[23]
  growth inhibition (GI): inactive
[24]
  inhibition of growth at 10 µM: 6%
[25]
  inhibition of growth at 10 µM: 7%
[26]
  growth inhibition (GI): inactive
[27]
  growth inhibition (GI): inactive
[28]
  growth inhibition (GI): inactive
[29]
  growth inhibition (GI): inactive
[30]
  inhibition of growth at 10 µM: 13%
[31]
  growth inhibition (GI): inactive
[32]
  growth inhibition (GI): inactive
[33]
  growth inhibition (GI): inactive
[34]
  growth inhibition (GI): inactive
[35]
  inhibition of growth at 10 µM: 10%
[36]
  growth inhibition (GI): inactive
[37]
  growth inhibition (GI): inactive
[38]
  inhibition of growth at 10 µM: 2%
[39]
  growth inhibition (GI): inactive
[40]
  growth inhibition (GI): inactive
[41]
  growth inhibition (GI): inactive
[42]
  growth inhibition (GI): inactive
[43]
  growth inhibition (GI): inactive
[44]
  growth inhibition (GI): inactive
[45]
  inhibition of growth at 10 µM: 2%

From ChEMBL document CHEMBL2434896, “Carbonic anhydrase inhibitors. Synthesis of heterocyclic 4-substituted pyridine-3-sulfonamide derivatives and their inhibition of the human cytosolic isozymes I and II and transmembrane tumor-associated isozymes IX and XII” (Eur J Med Chem, 2013)
